# Test results taken from publication PMC8587750, “Structural Optimization and Biological Activity of Pyrazole Derivatives: Virtual Computational Analysis, Recovery Assay and 3D Culture Model as Potential Predictive Tools of Effectiveness against Trypanosoma cruzi” (Molecules, 2021).
# “Also recorded” adds a separate entry of the source. Read-outs that look alike come from different tables or passages of the source.
# Legend:
# [1] = test system: intracellular parasites in T. cruzi-infected microtissue; assay: 3D-microtissue-based phenotypic screening (T. cruzi-infected Vero spheroids); format: cell-based, Trypanosoma cruzi; details: 72 h treatment; for viability of intracellular parasites in microtissue, luminescence intensity (ALU): Bz 100 µM
# Method: Vero cells were seeded at a density of 2 × 10^5 cells/well in a 96-well U-bottom plate previously coated with agarose (1%). The 3D cultures, adapted from, were cultivated for 4 days in RPMI 1640 medium supplemented with 10% FBS and L-glutamine for complete 3D microtissue formation. The 3D culture model was used as a tool to evaluate the effectiveness of promising derivatives in eliminating intracellular parasites in the microtissue.
# The 3D-microtissue-based phenotypic screening was performed with the promising pyrazole derivatives. […] At the end of the treatment, the 3D cultures supernatants were removed, and luciferin (300 μg/mL) was added to the spheroids. The luminescent signal was read on the Glomax-Multi Detection reader (Promega Corporation, Madison, WI, USA). Bz (100 µM) and DMSO (≤1%) were used as positive and negative control, respectively. The IC50 value was calculated by linear regression. At least three independent assays were performed in quadruplicate.
# [2] = test system: T. cruzi (Dm28c-Luc) in Vero cells; assay: Reversibility (washout) assay, parasite recrudescence in infected Vero cells; format: cell-based, Trypanosoma cruzi; details: for decrease of parasite load compared to untreated infected Vero cell cultures: 72 h treatment at IC90, washout, 72 h without drug
# Method: To address the question of whether the treatment with 3g, 3j, and 3m leads to parasite clearance, an intracellular T. cruzi washout assay was performed as a strategy for monitoring the parasite recrudescence. In this approach, cultures of infected Vero cells (Dm28c-Luc) were treated for 72 h at IC90 and 50 µM (2 to 5-fold de IC90) concentrations of the promising compounds 3g, 3j, and 3m and, after washing the cell monolayers, the cultures were kept for another 72 h without drug treatment. Both cell monolayers and their supernatants were evaluated for the presence of viable parasites after luciferin addition. All derivatives analyzed relapsed at the IC90 concentration (Figure 3). However, treatment with 3g, 3j, and 3m led to a significant reduction in the parasite load, reaching a decrease of 4.5-, 1.9-, and 8.7-fold, respectively, when compared to untreated infected Vero cells cultures (Figure 3). The emergence of trypomastigotes in the supernatant, at IC90 concentration, was observed three days after removal of drug pressure, but with a significant reduction in viable parasites compared to untreated cultures (Figure 3). Parasite recrudescence was not seen in 100 µM Bz treatment (Figure 3).
# The washout assay, adapted from, was performed to evaluate the promising compounds efficacy. […] After successive washing, the cultures were maintained for an additional 72 h at 37 °C in RPMI 1640 medium supplemented with 10% SFB in the absence of the compound. Luciferin (300 µg/mL) was added separately to the culture supernatant, previously removed, and the cell monolayer. The luminescent signal was read on the Glomax-Multi Detection reader (Promega Corporation, Madison, WI, USA). Bz (100 µM) and DMSO (≤1%) were used as positive and negative reaction controls, respectively.
# [3] = test system: T. cruzi cysteine protease; assay: Cysteine protease activity of trypomastigote total protein extracts (Z-FR-AMC); format: biochemical, Trypanosoma cruzi; details: for maximum inhibition of cysteine protease enzymatic activity: 300 µM, Z-FR-AMC 60 µM, pH 5.0, 37 °C
# Method: Total protein extract from trypomastigotes (Dm28c-Luc; 10^8 parasites/mL) were extracted with lysis buffer. Cysteine protease activity of extracts (5 μg) was measured in acetate buffer using fluorogenic peptide substrate (60 μM of 7-Amino-4-Methylcoumarin hydrochloride, CBZ-L-Phenylalanyl-L-Arginine amide (Z-FR-AMC). Total protein extracts were incubated for 45 min at room temperature with the compounds and changes in relative fluorescence units monitored using a SpectraMaxM2e spectrophotometer (Molecular Devices, Sunnyvale, CA, USA) for 1 h with excitation at 370 nm and emission at 460 nm. The inhibition assays were performed by coincubation with different compounds (3g, 3j, and 3m) and concentrations (300–11.11 µM) and transepoxysuccinyl-L-leucylamido-(4-guanidino) butane (E-64). Additional control was carried out with DMSO (≤1%). Enzymatic activity was expressed in µmol/min/mg of protein and the residual activity in percentage.
# Figure 6 Inhibition of T. cruzi cysteine protease activity. Total protein extracts of trypomastigotes (5 µg), was incubated at different concentrations (300–11.11 µM) of compounds E64 (black circle), 3g (black triangle), 3j (black square) and 3m (white circle) in enzyme activation buffer pH 5.0, at 37 °C. Enzyme activity was measured using a specific fluorogenic peptide substrate Z-FR-AMC (60 µM). Results are presented as percentage of inhibition of enzyme activity (%) and represent the mean and standard deviation (±) of three independent experiments.
# [4] = test system: intracellular amastigotes of T. cruzi; assay: Activity against intracellular amastigotes in infected Vero cells (Dm28c-Luc, 72 h); format: cell-based, Trypanosoma cruzi; details: for IC90: read-out: Trypanocidal Activity Intracellular Amastigotes IC90
# Description: (§1) T. cruzi Dm28c clone genetically modified to express luciferase, kindly provided by Dr. Cristina Henriques from Oswaldo Cruz Institute–Fiocruz, was used in the drug assays. Trypomastigotes were harvested from T. cruzi-infected Vero cultures supernatants at 4th days post-infection (dpi) and used in the phenotypic screening assay. For intracellular amastigotes assays, Vero cells (2D and 3D cultures) were infected at a ratio of 10:1 parasites/host cells.
# The effect of the pyrazole derivatives against intracellular amastigotes was also evaluated after 72 h treatment (37 °C) with compound concentrations ranging from 0.04–100 µM [13]. Parasite viability, measured by luminescent signal, was determined after luciferin (300 µg/mL) addition. IC50 and IC90 values were calculated by linear regression. Selectivity index (SI) was calculated as the ratio of the CC50 to IC50 values. The non-toxic concentration of DMSO (less than 1% v/v) was used in all assays. A minimum of three independent assays was carried out in duplicate.
# [5] = Cytotoxicity in vitro assay (ATP, CellTiter Glo, 72 h); format: cell-based; details: African green monkey, Vero cells
# Method: Vero cells, obtained from the Rio de Janeiro Cell Bank (BCRJ code 0245), were cultured in RPMI-1640 supplemented with 10% fetal bovine serum (FBS) and 1 mM L-glutamine, as previously described. Vero cells were used for drug screening assays and to obtain trypomastigote forms of T. cruzi.
# Vero cells were used as a cellular model to analyze the toxic effect of pyrazole derivatives, series 1(a–l), 2(a–l), 3(a–n), 4(a–c), and 5(a–c), and Benznidazole (Bz) on mammalian cells. Briefly, the cells, plated on 96-well white opaque microplate (1.5 × 10^4 cells/well), were treated for 72 h at 37 °C with a wide range concentration (500–1.95 µM) of the pyrazole derivatives. The cell viability was determined by measuring ATP levels using the CellTiter Glo Kit (Promega Corporation, Madison, WI, EUA) followed by reading the luminescent signal on the Glomax-Multi Detection plate reader (Promega Corporation, Madison, WI, EUA)). All treatments and controls were performed at a low concentration of DMSO (≤1%). The 50% cytotoxic concentration values (CC50; the concentration of the compound that reduces 50% of the cell viability) were estimated by linear regression analysis. Three independent assays were performed in duplicate.
# [6] = test system: trypomastigote forms of T. cruzi; assay: Phenotypic screening against T. cruzi trypomastigotes (Dm28c-Luc, luciferase viability, 24 h); format: cell-based, Trypanosoma cruzi; details: for Trypomastigotes SI: CC50 of Vero cells/IC50 of trypomastigote; for IC50 / IC90: Trypanosoma cruzi, Dm28c-Luc, 24 h; for IC50: read-out: Trypanocidal Activity Trypomastigotes IC50; for IC90: read-out: Trypanocidal Activity Trypomastigotes IC90
# Description: as §1
# The phenotypic compound screening was performed using transgenic T. cruzi parasites expressing the firefly luciferase (Dm28c-Luc). Trypomastigotes (1 × 10^6 parasites/well) were treated for 24 h at 37 °C with the pyrazole derivatives and Bz (0.04–100 μM), followed by incubation with luciferin substrate (300 µg/mL) to determine parasite viability through luciferase activity. The concentration that reduces the number of viable parasites by 50% (IC50) or 90% (IC90) was calculated by linear regression. The luminescent signal was read on a Glomax-Multi Detection plate reader (Promega Corporation, Madison, WI, EUA)). At least three independent assays were performed in duplicate.
# [7] = test system: T. cruzi-infected cardiac microtissue; design: method as in PMID 32564978; details: 5 nM; cited from earlier work
# [8] = test system: trypomastigote forms of T. cruzi; design: method as in PMID 31434040; details: read-out: IC50 against trypomastigotes; cited from earlier work
# [9] = Trypanosoma cruzi, Vero, negative log of the IC50 value in molar, read-out: Intracellular Amastigotes pIC50 (converted)
# [10] = Trypanosoma cruzi, Vero cells infected with Dm28c-Luc, 72 h
Compound,"viability of intracellular parasites in microtissue, luminescence intensity (ALU) [1]",decrease of parasite load compared to untreated infected Vero cell cultures [2] [fold],maximum inhibition of cysteine protease enzymatic activity [3] [%],"IC50 [4, 9] [µM]","IC90 [4, 10] [µM]",CC50 at 72 h [5] [µM],Trypomastigotes SI [6],IC50 [6] [µM],IC90 [6] [µM],other results
"Cc1ccc(-n2cc(C3=NCCN3)cn2)cc1Cl [Compound 3m, 1-(3-chloro-4-methylphenyl)-4-(4,5-dihydro-1H-imidazol-2-yl)-1H-pyrazole]","12,683 ± 3976 ALU",8.7,26,3.55,21.4 ± 1.25,161 ± 16.1,4.64,34.5 ± 8.32,> 100,"reduction of microtissue infection [1]: 93%; parasite recrudescence / efficacy ([2]; 50 µM (2 times IC90), 72 h after washout): without parasitism recrudescence; also recorded: same activity profile as 100 µM Bz; fold increase of activity against intracellular amastigotes versus hit compound ([4]; compared to hit compound): 3.8 fold; trypanocidal activity fold higher than 3e ([4]; intracellular amastigotes): 21 fold"
"Clc1ccc(-n2cc(C3=NCCN3)cn2)cc1 [Compound 3g, 1-(4-chlorophenyl)-4-(4,5-dihydro-1H-imidazol-2-yl)-1H-pyrazole]","36,130 ± 5764 ALU",4.5,26,6.03,26.1 ± 14.3,277 ± 15.8,4.27,64.6 ± 1.56,> 100,"IC50 ([4]; Trypanosoma cruzi, Vero, 72 h, Vero cells infected with Dm28c-Luc, 72 h, read-out: Trypanocidal Activity Intracellular Amastigotes IC50): < 10 µM; IC50 ([4]; Vero cells infected with Dm28c-Luc, 72 h, read-out: Trypanocidal Activity Intracellular Amastigotes IC50): 6.09 ± 0.52 µM"
"CC[C@@H]([C@H](C)O)n1ncn(-c2ccc(N3CCN(c4ccc(OC[C@@H]5CO[C@@](Cn6cncn6)(c6ccc(F)cc6F)C5)cc4)CC3)cc2)c1=O [Posaconazole, posaconazole]",,,,,,,,,,reduction of parasite load [7]: 50%
"5-amino-1-aryl-4-(4,5-dihydro-1H-imidazol-2-yl)-1H-pyrazole [hit compound]",,,,,,,,,,IC50 [8]: 9.5 ± 1.2 µM
"CC(C)C[C@H](NC(=O)[C@H]1O[C@@H]1C(=O)O)C(=O)NCCCCN=C(N)N [Compound E-64, transepoxysuccinyl-L-leucylamido-(4-guanidino) butane, reference compound]",,,,,,,,,,inhibition of cysteine protease enzymatic activity ([3]; concentrations ≥ 11.11 µM): greater than 80%
"Brc1ccc(-n2cc(C3=NCCN3)cn2)cc1 [Compound 3j, 1-(4-bromophenyl)-4-(4,5-dihydro-1H-imidazol-2-yl)-1H-pyrazole]","39,001 ± 9952 ALU",1.9,26,2.75,9.67 ± 0.3,309 ± 34.3,5.36,57.7 ± 3.14,95.3 ± 5.43,
